Source: the supplement of paper PMC10307832

Assays:
Test in all cases: relative viability (nuclei count vs DMSO), 5 days (fraction); higher = more cells survive
BAY61-3606 + OSI-027 = compound: COC1=C(C=C(C=C1)C2=CC3=NC=CN3C(=N2)NC4=C(C=CC=N4)C(=O)N)OC [BAY61-3606] + COc1cccc2cc(-c3nc([C@H]4CC[C@H](C(=O)O)CC4)n4ncnc(N)c34)[nH]c12 [OSI-027] (partner 0.5 µM)
Outline: (§1)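 Relative viability equals treated-well nuclei counts divided by vehicle-well nuclei counts. Counts came from 4× images of lung cancer cell lines grown in 1536-well plates for 5 days after pin-tool dosing on the day after seeding. Dosing used one drug alone or a fixed anchor-drug dose plus five library-drug doses (not always all listed) in √10 steps, and values are medians of duplicate plates.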

BAY61-3606 + Crizotinib = compound: COC1=C(C=C(C=C1)C2=CC3=NC=CN3C(=N2)NC4=C(C=CC=N4)C(=O)N)OC [BAY61-3606] + C[C@@H](Oc1cc(-c2cnn(C3CCNCC3)c2)cnc1N)c1c(Cl)ccc(F)c1Cl [Crizotinib] (partner 1 µM)
Outline: as §1

BAY61-3606 + Decitabine = compound: COC1=C(C=C(C=C1)C2=CC3=NC=CN3C(=N2)NC4=C(C=CC=N4)C(=O)N)OC [BAY61-3606] + Nc1ncn([C@H]2C[C@H](O)[C@@H](CO)O2)c(=O)n1 [Decitabine] (partner 2 µM)
Outline: as §1

Doxorubicin + OSI-027 = compound: COc1cccc2c1C(=O)c1c(O)c3c(c(O)c1C2=O)C[C@@](O)(C(=O)CO)C[C@@H]3O[C@H]1C[C@H](N)[C@H](O)[C@H](C)O1 [Doxorubicin] + COc1cccc2cc(-c3nc([C@H]4CC[C@H](C(=O)O)CC4)n4ncnc(N)c34)[nH]c12 [OSI-027] (partner 0.5 µM)
Outline: as §1

| Cell Line | relative viability (BAY61-3606 + OSI-027; first compound 0.02 µM) | relative viability (BAY61-3606 + OSI-027; first compound 0.06325 µM) | relative viability (BAY61-3606 + OSI-027; first compound 0.2 µM) | relative viability (BAY61-3606 + OSI-027; first compound 0.6325 µM) | relative viability (BAY61-3606 + OSI-027; first compound 2 µM) | relative viability (BAY61-3606 + Crizotinib; first compound 0.02 µM) | relative viability (BAY61-3606 + Crizotinib; first compound 0.06325 µM) | relative viability (BAY61-3606 + Crizotinib; first compound 0.2 µM) | relative viability (BAY61-3606 + Crizotinib; first compound 0.6325 µM) | relative viability (BAY61-3606 + Crizotinib; first compound 2 µM) | relative viability (BAY61-3606 + Decitabine; first compound 0.02 µM) | relative viability (BAY61-3606 + Decitabine; first compound 0.06325 µM) | relative viability (BAY61-3606 + Decitabine; first compound 0.2 µM) | relative viability (BAY61-3606 + Decitabine; first compound 0.6325 µM) | relative viability (BAY61-3606 + Decitabine; first compound 2 µM) | relative viability (Doxorubicin + OSI-027; first compound 0.001 µM) | relative viability (Doxorubicin + OSI-027; first compound 0.003162 µM) | relative viability (Doxorubicin + OSI-027; first compound 0.01 µM) | relative viability (Doxorubicin + OSI-027; first compound 0.03162 µM) | relative viability (Doxorubicin + OSI-027; first compound 0.1 µM) |
| --- | --- | --- | --- | --- | --- | --- | --- | --- | --- | --- | --- | --- | --- | --- | --- | --- | --- | --- | --- | --- |
| COR-L23 | 0.764 | 0.806 | 0.712 | 0.778 | 0.496 | 0.697 | 0.67 | 0.527 | 0.667 | 0.509 | 0.398 | 0.441 | 0.455 | 0.485 | 0.363 | 0.753 | 0.912 | 0.741 | 0.452 | 0.193 |
| NCI-H1299 |  |  |  |  |  | 0.98 | 0.961 | 1.01 | 0.992 | 0.93 |  |  |  |  |  |  |  |  |  |  |
| NCI-H1703 |  |  |  |  |  | 0.76 | 0.449 | 0.661 | 0.353 | 0.343 |  |  |  |  |  |  |  |  |  |  |
| NCI-H2228 | 0.885 | 0.451 | 0.594 | 0.495 | 0.293 | 0.483 | 0.405 | 0.526 | 0.378 | 0.478 |  |  |  |  |  | 0.35 | 0.62 | 0.414 | 0.274 | 0.209 |
| NCI-H2342 | 0.705 | 0.609 | 0.596 | 0.682 | 0.664 |  |  |  |  |  | 0.81 | 0.853 | 0.78 | 0.78 | 0.831 | 0.628 | 0.563 | 0.597 | 0.59 | 0.609 |
| SW 900 | 0.616 | 0.529 | 0.612 | 0.747 | 0.427 |  |  |  |  |  | 0.452 |  |  | 0.396 | 0.442 | 0.373 | 0.708 | 0.571 | 0.401 | 0.226 |
| NCI-H1793 | 0.259 | 0.276 |  | 0.255 | 0.235 |  |  |  |  |  | 0.504 | 0.501 | 0.558 | 0.539 | 0.651 |  | 0.334 | 0.253 | 0.265 | 0.292 |
| NCI-H1563 | 0.742 | 0.764 | 0.699 | 0.71 | 0.676 | 0.906 | 0.868 | 0.882 | 0.948 | 0.758 |  |  |  |  |  | 0.813 | 0.788 | 0.684 | 0.589 | 0.5 |
| NCI-H1648 | 0.219 | 0.257 | 0.263 | 0.229 | 0.217 |  |  |  |  |  | 0.423 | 0.511 | 0.504 |  | 0.445 | 0.291 | 0.276 | 0.261 | 0.259 | 0.266 |
| NCI-H522 | 0.653 | 0.646 | 0.686 | 0.717 | 0.738 |  |  |  |  |  | 0.68 | 0.635 | 0.732 | 0.742 | 0.517 | 0.568 | 0.72 | 0.792 | 0.756 | 0.709 |
| NCI-H1395 | 0.721 | 0.581 | 0.601 | 0.635 | 0.629 |  |  |  |  |  | 0.824 | 0.709 | 0.799 | 0.661 | 0.686 | 0.633 | 0.714 | 0.685 | 0.603 | 0.559 |
| A549 |  |  |  |  |  | 0.758 | 0.756 | 0.712 | 0.713 | 0.406 | 0.222 | 0.261 | 0.224 | 0.237 | 0.198 |  |  |  |  |  |
